This passage reports IC50 results from patent publication EP4385979A1 (Grünenthal GmbH, priority 2022, dated 2024).

Molecules are shown by their SMILES.

The target of this test is T1, human NaV1.8 (Homo sapiens, UniProt Q9Y5Y9).
T1 construct: expressed in transfected cells; host or cells: HEK
T1 sequence (Q9Y5Y9 whole entry): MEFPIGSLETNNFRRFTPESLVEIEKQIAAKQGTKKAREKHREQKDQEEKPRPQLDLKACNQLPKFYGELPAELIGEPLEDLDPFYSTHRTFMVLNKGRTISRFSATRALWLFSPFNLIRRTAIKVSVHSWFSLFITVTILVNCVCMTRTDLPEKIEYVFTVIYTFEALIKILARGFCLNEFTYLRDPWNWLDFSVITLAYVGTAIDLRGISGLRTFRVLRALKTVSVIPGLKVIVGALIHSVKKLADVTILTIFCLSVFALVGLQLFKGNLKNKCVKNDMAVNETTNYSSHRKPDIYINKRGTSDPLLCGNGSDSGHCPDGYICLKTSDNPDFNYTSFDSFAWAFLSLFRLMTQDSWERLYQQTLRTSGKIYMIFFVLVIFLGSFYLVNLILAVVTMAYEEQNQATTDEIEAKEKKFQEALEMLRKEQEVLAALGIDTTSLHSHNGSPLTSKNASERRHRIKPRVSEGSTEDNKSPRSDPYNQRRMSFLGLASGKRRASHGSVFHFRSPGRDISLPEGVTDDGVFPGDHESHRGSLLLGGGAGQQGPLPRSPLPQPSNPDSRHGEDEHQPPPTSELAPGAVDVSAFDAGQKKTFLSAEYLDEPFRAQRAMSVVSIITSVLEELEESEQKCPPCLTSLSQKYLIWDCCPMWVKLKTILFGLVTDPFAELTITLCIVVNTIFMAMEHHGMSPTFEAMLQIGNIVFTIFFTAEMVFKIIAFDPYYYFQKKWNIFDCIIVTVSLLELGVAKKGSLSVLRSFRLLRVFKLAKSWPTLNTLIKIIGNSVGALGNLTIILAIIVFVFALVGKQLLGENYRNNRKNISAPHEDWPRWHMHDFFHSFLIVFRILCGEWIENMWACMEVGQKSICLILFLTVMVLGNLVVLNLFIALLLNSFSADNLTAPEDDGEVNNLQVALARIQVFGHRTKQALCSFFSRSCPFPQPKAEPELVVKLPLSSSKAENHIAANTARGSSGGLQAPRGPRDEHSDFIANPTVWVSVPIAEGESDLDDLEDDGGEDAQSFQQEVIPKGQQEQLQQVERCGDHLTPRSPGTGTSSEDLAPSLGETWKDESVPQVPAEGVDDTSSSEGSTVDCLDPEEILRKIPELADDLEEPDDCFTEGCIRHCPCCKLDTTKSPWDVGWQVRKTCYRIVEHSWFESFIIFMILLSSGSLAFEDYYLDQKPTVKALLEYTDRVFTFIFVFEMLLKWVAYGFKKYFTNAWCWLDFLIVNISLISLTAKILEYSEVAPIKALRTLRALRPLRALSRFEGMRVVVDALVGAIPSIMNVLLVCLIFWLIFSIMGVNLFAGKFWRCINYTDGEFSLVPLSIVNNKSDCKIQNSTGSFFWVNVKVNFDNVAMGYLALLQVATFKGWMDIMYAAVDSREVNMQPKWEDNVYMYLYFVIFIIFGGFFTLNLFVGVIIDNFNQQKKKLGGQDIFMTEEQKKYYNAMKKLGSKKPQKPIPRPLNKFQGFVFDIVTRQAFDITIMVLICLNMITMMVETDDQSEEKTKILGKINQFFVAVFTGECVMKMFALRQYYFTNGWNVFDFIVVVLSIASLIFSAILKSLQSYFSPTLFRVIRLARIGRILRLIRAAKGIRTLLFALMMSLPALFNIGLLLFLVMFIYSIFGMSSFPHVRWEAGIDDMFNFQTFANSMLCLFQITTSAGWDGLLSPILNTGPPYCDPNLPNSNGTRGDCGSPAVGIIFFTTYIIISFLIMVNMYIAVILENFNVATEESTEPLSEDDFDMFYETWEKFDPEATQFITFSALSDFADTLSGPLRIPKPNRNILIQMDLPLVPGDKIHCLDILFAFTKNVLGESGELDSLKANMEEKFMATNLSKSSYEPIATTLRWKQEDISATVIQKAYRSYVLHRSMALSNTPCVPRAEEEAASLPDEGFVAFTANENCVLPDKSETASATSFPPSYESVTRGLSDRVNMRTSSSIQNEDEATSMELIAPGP
The test is described as follows: Electrophysiology: voltage-clamp recordings, whole-cell patch clamp on Qube384 automated platform. It is filed as cell-based. Conditions: HEK-NaV1.8 (NM 006514.1) with b3 recombinant cell line, multi hole plates, ambient room temperature, read-out: Potency category (human NaV1.8 IC50). The method, then: Electrophysiology: Voltage-Clamp recordings
The following NaV1.8 recombinant cell line was used for recordings: HEK-NaV1.8 (NM 006514.1) with b3 (NM_018400.3).
Sodium currents were measured using the patch clamp technique in the whole-cell configuration using the Qube384 (Sophion A/S, Copenhagen, Denmark) automated voltage clamp platform. "Multi hole" plates were used for the cell line expressing NaV1.8 while "single hole" plates were used for the recombinant cell lines expressing the other subtypes. Appropriate filters (for minimum seal resistance and minimum current size) and series resistance compensation (for high quality sodium channel recordings) were applied. Data was collected at ambient room temperature.
The recording […] solution contained (in mM): NaCl 145 mM, KCl 4 mM, CaCl2 2 mM, MgCl2 1 mM, HEPES 10 mM, Glucose 10 mM, pH 7.4 (NaOH). The […] recording solution contained (in mM): CsF 120 mM, CsCl 20 mM, NaCl 10 mM, EGTA 10 mM, HEPES 10 mM, pH 7.2 (CsOH). Currents were recorded at 25 kHz sampling frequency and filtered at 5 kHz. Series resistance compensation was applied at 65%.
Vehicle (VEH) is the control condition where cells are exposed to 0.3 % DMSO without compound. All runs include VEH controls being exposed to the same voltage protocols to assess non-compound related phenomena such as run down and then used to isolate compound dependent effects on currents.
To check for state-dependence inhibition, the following voltage-sequence was applied every 20 seconds: From a resting membrane potential of-120 mV, the first test pulse (P1; 20 ms to -10 mV) was applied to check for channels in the Resting State followed by a brief recovery (20 ms to -120 mV), then holding the membrane voltage to V1/2 (4 seconds at voltage to obtain half the channel at Rest and half Inactivated) with a subsequent second test pulse (P2; 20 ms to -10 mV) to check for channels in the Inactivated State, followed by another brief recovery (20 ms to -120 mV) and a final third test pulse (P3; 20 ms to -10 mV) to check for recovered channels.
To check for frequency-dependent inhibition, a 10 Hz protocol and a 20 Hz protocol were applied; namely,
From a resting membrane potential of -120 mV, 40-pulses (10 ms to -10 mV) was applied at 10 Hz (at 100 ms between pulses) and then at 20 Hz (at 50 ms between pulses). Each parameter was recorded (P1, P2, P3, P40 from 10Hz and P40 from 20Hz) during a control period (lasting ~ 5 minutes) when establishing the baseline and during compound period (lasting ~ 12 minutes) when test compound (or vehicle) was applied. For each parameter, the value at the end of the compound period was normalized to the vehicle baseline; as follows Normalized Inhibition (NormCPD) = (CPD Valueend CPD period)/(VEH Valueend Control Period) [formula]
To adjust for any variance in the Na^+ current signal during the compound period (owing to cumulative inactivation independent of compound or shifts in biophysics over time), a dedicated segment of the recording wells in each 384 plate were dedicated to having only vehicle exposure. These vehicle-only recordings were used to correct for any apparent "run-up" or "run-down" in the experiment. Normalized Inhibition (NormVEH) = (VEH Valueend CPD period)/(VEH Valueend Control Period) [formula]
The adjusted inhibition was calculated as follows: % Inhibitioncorrected = 100 × (NormCPD −NormVEH)/(100−NormVEH) [formula]
Percent inhibition was determined and IC50 values were calculated using a 4 parameter logistic model within XLFit Software (IDBS, Boston MA): % Inhibitioncorrected = A + ((B−A))/((1 + (((x)/(C)))^D) [formula] where A and B are the maximal and minimum inhibition respectively, C is the IC50 concentration and D is the (Hill) slope.
A general note: The patch-clamp technique gives a direct electrical read-out from membranes.
By IC50 is commonly meant the concentration at which inhibition is half-maximal. With `Cc1c(C(C)(F)F)nn(CC2(C)CC(F)(F)CC2C)c1C(=O)Nc1ccnc(C(N)=O)c1` (single isomer, unassigned) [Example 10a, 4-(1-((4,4-difluoro-1,2-dimethylcyclopentyl)methyl)-3-(1,1-difluoroethyl)-4-methyl-1H-pyrazole-5-carboxamido)picolinamide], the IC50 is at most 100 nM. Next, `Cc1c(C(C)(F)F)nn(CC2(C)CC(F)(F)CC2C)c1C(=O)Nc1ccnc(C(N)=O)c1` (single isomer, unassigned) [Example 10b, 4-(1-((4,4-difluoro-1,2-dimethylcyclopentyl)methyl)-3-(1,1-difluoroethyl)-4-methyl-1H-pyrazole-5-carboxamido)picolinamide]: at most 100 nM; `Cc1c(C(C)(F)F)nn(CC2(C)CC(F)(F)CC2C)c1C(=O)Nc1ccnc(C(N)=O)c1` (single isomer, unassigned) [Example 10c, 4-(1-((4,4-difluoro-1,2-dimethylcyclopentyl)methyl)-3-(1,1-difluoroethyl)-4-methyl-1H-pyrazole-5-carboxamido)picolinamide]: at most 100 nM. Under `Cc1c(C(C)(F)F)nn(CC2(C)CC(F)(F)CC2C)c1C(=O)Nc1ccnc(C(N)=O)c1` (single isomer, unassigned) [Example 10d, 4-(1-((4,4-difluoro-1,2-dimethylcyclopentyl)methyl)-3-(1,1-difluoroethyl)-4-methyl-1H-pyrazole-5-carboxamido)picolinamide] stands at most 100 nM. Take `CC1(C)CC(Cn2nc(C3CC3)c(C(F)(F)F)c2C(=O)Nc2ccnc(C(N)=O)c2)O1` (single isomer, unassigned) [Example 17a, 4-(3-cyclopropyl-1-((4,4-dimethyloxetan-2-yl)methyl)-4-(trifluoromethyl)-1H-pyrazole-5-carboxamido)picolinamide]: the concentration for half-maximal inhibition (IC50) was in the range of 100 to 1000 nM. Consider `CC1(C)CC(Cn2nc(C3CC3)c(C(F)(F)F)c2C(=O)Nc2ccnc(S(C)(=O)=O)c2)O1` (single isomer, unassigned) [Example 22a, 3-cyclopropyl-1-((4,4-dimethyloxetan-2-yl)methyl)-N-(2-(methylsulfonyl)pyridin-4-yl)-4-(trifluoromethyl)-1H-pyrazole-5-carboxamide], for which the IC50 lay in the range of 1000 to 10000 nM. With `Cc1c(C(C)(F)F)nn(CC2(C)CC(F)(F)CC2C)c1C(=O)Nc1ccnc(S(N)(=O)=O)c1` (single isomer, unassigned) [Example 43a, 1-((4,4-difluoro-1,2-dimethylcyclopentyl)methyl)-3-(1,1-difluoroethyl)-4-methyl-N-(2-sulfamoylpyridin-4-yl)-1H-pyrazole-5-carboxamide], the IC50 is at most 100 nM.

As for `Cc1c(C(C)(F)F)nn(CC2(C)CC(F)(F)CC2C)c1C(=O)Nc1ccnc(S(N)(=O)=O)c1` (single isomer, unassigned) [Example 43b, 1-((4,4-difluoro-1,2-dimethylcyclopentyl)methyl)-3-(1,1-difluoroethyl)-4-methyl-N-(2-sulfamoylpyridin-4-yl)-1H-pyrazole-5-carboxamide], the IC50 was at most 100 nM. With `Cc1c(C(C)(F)F)nn(CC2(C)CC(F)(F)CC2C)c1C(=O)Nc1ccnc(S(N)(=O)=O)c1` (single isomer, unassigned) [Example 43c, 1-((4,4-difluoro-1,2-dimethylcyclopentyl)methyl)-3-(1,1-difluoroethyl)-4-methyl-N-(2-sulfamoylpyridin-4-yl)-1H-pyrazole-5-carboxamide], the IC50 was at most 100 nM.

`Cc1c(C(C)(F)F)nn(CC2(C)CC(F)(F)CC2C)c1C(=O)Nc1ccnc(S(N)(=O)=O)c1` (single isomer, unassigned) [Example 43d, 1-((4,4-difluoro-1,2-dimethylcyclopentyl)methyl)-3-(1,1-difluoroethyl)-4-methyl-N-(2-sulfamoylpyridin-4-yl)-1H-pyrazole-5-carboxamide]: the IC50 is at most 100 nM. In the case of `Cc1nn(CC23CC(F)(C2)C3)c(C(=O)Nc2ccnc(C(N)=O)c2)c1C(F)(F)F` [Example 1, 4-(1-((3-fluorobicyclo[1.1.1]pentan-1-yl)methyl)-3-methyl-4-(trifluoromethyl)-1H-pyrazole-5-carboxamido)picolinamide], the IC50 was in the range of 100 to 1000 nM. Next, `Cc1c(C(C)(F)F)nn(CC23CC(F)(C2)C3)c1C(=O)Nc1ccnc(C(N)=O)c1` [Example 2, 4-(3-(1,1-difluoroethyl)-1-((3-fluorobicyclo [1.1.1]pentan-1-yl)methyl)-4-methyl-1H-pyrazole-5-carboxamido)picolinamide]: 100 to 1000 nM; `NC(=O)c1cc(NC(=O)c2c(C(F)(F)F)c(C3CC3)nn2CC23CC(CO2)C3)ccn1` [Example 3]: 100 to 1000 nM; `Cc1c(C(C)(F)F)nn(CC23CC(C(F)(F)F)(C2)C3)c1C(=O)Nc1ccnc(C(N)=O)c1` [Example 4]: at most 100 nM. Under `Cc1c(C(F)(F)F)nn(CC23CC(C(F)(F)F)(C2)C3)c1C(=O)Nc1ccnc(C(N)=O)c1` [Example 8, 4-(4-methyl-3-(trifluoromethyl)-1-((3-(trifluoromethyl)bicyclo [1.1.1]pentan-1-yl)methyl)-1H-pyrazole-5-carboxamido)picolinamide] stands at most 100 nM; under `NC(=O)c1cc(NC(=O)c2c(C(F)(F)F)c(C3CC3)nn2CC23CC(C(F)(F)F)(C2)C3)ccn1` [Example 9, 4-(3-cyclopropyl-4-(trifluoromethyl)-1-((3-(trifluoromethyl)bicyclo [1.1.1]pentan-1-yl)methyl)-1H-pyrazole-5-carboxamido)picolinamide], at most 100 nM. As to `COC12CC(Cn3nc(C4CC4)c(C(F)(F)F)c3C(=O)Nc3ccnc(C(N)=O)c3)(C1)C2` [Example 14, 4-(3-cyclopropyl-1-((3-methoxybicyclo[1.1.1]pentan-1-yl)methyl)-4-(trifluoromethyl)-1H-pyrazole-5-carboxamido)picolinamide], the IC50 lay within 100 to 1000 nM. In the case of `NC(=O)c1cc(NC(=O)c2c(C(F)(F)F)c(C3CC3)nn2CC23CC(F)(C2)C3)ccn1` [Example 15, 4-(3-cyclopropyl-1-((3-fluorobicyclo [1.1.1]pentan-1-yl)methyl)-4-(trifluoromethyl)-1H-pyrazole-5-carboxamido)picolinamide], the IC50 is at most 100 nM. For the molecule `CC12COC(Cn3nc(C4CC4)c(C(F)(F)F)c3C(=O)Nc3ccnc(C(N)=O)c3)(C1)C2` [Example 16, 4-(3-cyclopropyl-1-((4-methyl-2-oxabicyclo[2.1.1]hexan-1-yl)methyl)-4-(trifluoromethyl)-1H-pyrazole-5-carboxamido)picolinamide], the IC50 is at most 100 nM. Under `Cc1nn(CC23CC(C(F)(F)F)(C2)C3)c(C(=O)Nc2ccnc(C(N)=O)c2)c1C(F)(F)F` [Example 18, 4-(3-methyl-4-(trifluoromethyl)-1-((3-(trifluoromethyl)bicyclo [1.1.1]pentan-1-yl)methyl)-1H-pyrazole-5-carboxamido)picolinamide] stands at most 100 nM; under `CC12COC(Cn3nc(C4CC4)c(C(F)(F)F)c3C(=O)Nc3ccnc(S(C)(=O)=O)c3)(C1)C2` [Example 19, 3-cyclopropyl-1-((4-methyl-2-oxabicyclo[2.1.1]hexan-1-yl)methyl)-N-(2-(methylsulfonyl)pyridin-4-yl)-4-(trifluoromethyl)-1H-pyrazole-5-carboxamide], 100 to 1000 nM; under `COC12CC(Cn3nc(C4CC4)c(C(F)(F)F)c3C(=O)Nc3ccnc(S(C)(=O)=O)c3)(C1)C2` [Example 20], 100 to 1000 nM.
